In the supplement of paper PMC10307832:

Experiments:
Assay in all cases: relative viability (nuclei count vs DMSO), 5 days (fraction); higher = more cells survive
[1] = compound: CS(=O)(=O)N1CCN(Cc2cc3nc(-c4cccc5[nH]ncc45)nc(N4CCOCC4)c3s2)CC1 [Pictilisib] + CC(=O)Nc1cccc(-n2c(=O)n(C3CC3)c(=O)c3c(Nc4ccc(I)cc4F)n(C)c(=O)c(C)c32)c1 [Trametinib] (partner 0.02 µM)
Summary of the method: (§1)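 Lung cancer cell lines in 1536-well plates were dosed by pin tool the day after seeding, either with one drug alone or with a fixed anchor-drug dose plus five library-drug doses (not always all listed) in √10 steps. After 5 days, cells were fixed and their nuclei stained in one step (final 0.05% Triton X-100, 1% formaldehyde, 1 ug/ml Hoechst), then counted on 4× images. Relative viability is the nuclei count in treated wells divided by that in vehicle wells. Values are medians of duplicate plates.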

[2] = compound: CS(=O)(=O)N1CCN(Cc2cc3nc(-c4cccc5[nH]ncc45)nc(N4CCOCC4)c3s2)CC1 [Pictilisib] + O=C(CCCCCCC(=O)Nc1ccccc1)NO [Vorinostat] (partner 1 µM)
Summary of the method: as §1

[3] = compound: CS(=O)(=O)N1CCN(Cc2cc3nc(-c4cccc5[nH]ncc45)nc(N4CCOCC4)c3s2)CC1 [Pictilisib] + O=C(c1cc(Cc2n[nH]c(=O)c3ccccc23)ccc1F)N1CCN(C(=O)C2CC2)CC1 [Olaparib] (partner 8 µM)
Summary of the method: as §1

[4] = compound: NC1(c2ccc(-c3nc4ccn5c(=O)[nH]nc5c4cc3-c3ccccc3)cc2)CCC1 [MK-2206] + CC(C)C[C@H](NC(=O)[C@H](Cc1ccccc1)NC(=O)c1cnccn1)B(O)O [Bortezomib] (partner 0.002 µM)
Summary of the method: as §1

[5] = compound: NC1(c2ccc(-c3nc4ccn5c(=O)[nH]nc5c4cc3-c3ccccc3)cc2)CCC1 [MK-2206] + Nc1ncn([C@H]2C[C@H](O)[C@@H](CO)O2)c(=O)n1 [Decitabine] (partner 2 µM)
Summary of the method: as §1

Cell Line | relative viability ([1]; first compound 0.02 µM) | relative viability ([1]; first compound 0.06325 µM) | relative viability ([1]; first compound 0.6325 µM) | relative viability ([1]; first compound 2 µM) | relative viability ([2]; first compound 0.02 µM) | relative viability ([2]; first compound 0.06325 µM) | relative viability ([2]; first compound 0.6325 µM) | relative viability ([2]; first compound 2 µM) | relative viability ([3]; first compound 0.02 µM) | relative viability ([3]; first compound 0.06325 µM) | relative viability ([3]; first compound 0.6325 µM) | relative viability ([3]; first compound 2 µM) | relative viability ([4]; first compound 0.01 µM) | relative viability ([4]; first compound 0.03162 µM) | relative viability ([4]; first compound 0.3162 µM) | relative viability ([4]; first compound 1 µM) | relative viability ([5]; first compound 0.01 µM) | relative viability ([5]; first compound 0.03162 µM) | relative viability ([5]; first compound 0.3162 µM) | relative viability ([5]; first compound 1 µM)
NCI-H460 | 0.157 | 0.215 | 0.0736 | 0.0266 | 0.796 | 0.757 | 0.842 | 0.155 | 0.425 | 0.436 | 0.395 | 0.173 | 1.03 | 1.2 | 0.97 | 1.06 | 0.491 | 0.506 | 0.513 | 0.419
NCI-H520 | 0.57 | 0.64 | 0.215 | 0.14 | 0.794 | 0.73 | 0.353 | 0.203 | 0.387 | 0.323 | 0.186 | 0.118 | 0.485 | 0.675 | 0.431 | 0.242 | 0.489 | 0.527 | 0.264 | 0.212
NCI-H596 | 0.795 | 0.764 | 0.515 | 0.327 | 0.545 | 0.618 | 0.371 | 0.709 | 0.621 | 0.642 | 0.567 | 0.338 | 1.07 | 1.09 | 0.964 | 0.648 | 1.03 | 1.03 | 0.99 | 0.914
NCI-H647 | 0.554 | 0.464 | 0.307 | 0.126 | 0.532 | 0.795 | 0.515 | 0.276 | 0.661 | 0.659 | 0.411 | 0.219 | 1.06 | 1.27 | 0.959 | 0.644 | 0.39 | 0.365 | 0.414 | 0.408
NCI-H650 | 1.03 | 0.969 | 0.8 | 0.5 | 0.533 | 0.427 | 0.378 | 0.164 | 0.372 | 0.37 | 0.44 | 0.348 | 0.898 | 0.932 | 0.642 | 0.656 | 0.344 | 0.306 | 0.347 | 0.284
NCI-H661 | 0.532 | 0.589 | 0.469 | 0.356 | 0.857 | 0.826 | 0.936 | 0.745 | 0.85 | 0.746 | 0.815 | 0.563 | 0.857 | 0.864 | 0.862 | 0.989 | 0.538 | 0.574 | 0.591 | 0.528
NCI-H727 | 0.409 | 0.367 | 0.344 | 0.331 | 1.04 | 1.29 | 1.11 | 0.867 | 0.796 | 0.801 | 0.72 | 0.548 | 0.901 | 0.828 | 0.587 | 0.54 | 0.959 | 0.833 | 0.884 | 0.755
